In patent US4857516A, “Coumaran derivatives and their pharmaceutical use” (Takeda Chemical Industries, Ltd., priority 1986, dated 1989):
pIC50: −log10 of the molar value.

What was measured:
[1] = test system: excitatory behavior induced by FeCl2 in mice; assay: Excitatory behavior induced by spinal intrathecal injection of FeCl2 in mice; assay type: in vivo, mouse; settings: 100 mg/kg p.o.
Procedure: Male Slc:ICP mice (5 weeks) were used. Each group consisted of 10 mice. 5 μl of 50 mM FeCl2 in saline was injected into spinal subarchnoid space betwen the 1st sacral and the 6th lumbar segment, the behavioral responses were observed from 15 min. to 1 hr. after the intrathecal injection of FeCl2 and scored as follows.
Score Behavioral responses
0: normal (no abnormal behavior)
1: vigorously biting lower abdomen or lower extremities
(a) extremely biting lower body with rolling
(b) hyperreactivity and agressive to external stmuli
at least one of above three behavioral changes were observed
4: tonic convulsion or paralysis of lower extremities.
The test compounds (100 mg/kg) were orally administered 30 min. prior to FeCl2 injection.

5-lipoxygenase = molecular target: T1, 5-lipoxygenase (Rattus norvegicus, UniProt P12527); assay: Inhibition of 5-lipoxygenase (5-HETE production in RBL-1 cells); assay type: cell-based; settings: for inhibition at 1 µM: 10^-6 M; for inhibition at 0.1 µM: 10^-7 M; for inhibition at 0.01 µM: 10^-8 M
T1 construct: endogenous in cells; host or cells: RBL-1 (rat basophilic leukemia cells)
T1 sequence (P12527 1-673): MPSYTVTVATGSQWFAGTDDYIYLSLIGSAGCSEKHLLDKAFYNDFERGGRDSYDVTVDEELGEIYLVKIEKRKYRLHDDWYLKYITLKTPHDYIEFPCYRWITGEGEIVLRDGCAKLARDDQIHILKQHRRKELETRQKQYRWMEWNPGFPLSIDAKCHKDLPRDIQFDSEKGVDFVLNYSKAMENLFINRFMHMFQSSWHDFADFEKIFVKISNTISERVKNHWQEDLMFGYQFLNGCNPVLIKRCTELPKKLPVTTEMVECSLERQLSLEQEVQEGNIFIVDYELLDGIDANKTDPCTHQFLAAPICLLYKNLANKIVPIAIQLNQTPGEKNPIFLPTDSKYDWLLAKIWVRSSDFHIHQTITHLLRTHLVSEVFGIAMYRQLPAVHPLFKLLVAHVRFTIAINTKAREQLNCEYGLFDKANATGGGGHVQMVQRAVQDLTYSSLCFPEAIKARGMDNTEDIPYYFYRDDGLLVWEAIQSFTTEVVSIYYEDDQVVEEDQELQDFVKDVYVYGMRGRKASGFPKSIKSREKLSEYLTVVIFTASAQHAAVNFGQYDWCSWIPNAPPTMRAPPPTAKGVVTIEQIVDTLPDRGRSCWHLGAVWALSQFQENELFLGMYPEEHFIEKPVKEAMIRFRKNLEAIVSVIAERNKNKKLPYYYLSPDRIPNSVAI
Procedure: 10^7 RBL-1 cells (rat basophilic leukemia cells) were suspended in 0.5 ml of MCM (mast cell medium). […] Then 4 ml of ethanol was added, and the mixture was well shaken and kept at room temperature for 10 min.
The mixture was centrifuged for 10 min. (2000 rpm), and the supernatant was separated. The supernatant obtained was concentrated to dryness under reduced pressure. To the residue 0.5 ml of 60 v/v % aqueous methanol was added. One hundred μl of this solution was subjected to high performance liquid chromatography for quantitative analysis of 5-HETE (5-hydroxyeicosatetraenoic acid). The amount of 5-HETE was determined by measurement of the absorbance at 237 nm with a UV absorption monitor.
The inhibitory effect (IE) of production of 5-HETE is expressed by (1-b/a)×100, wherein a is the peak height or the area corrected with the peak due to the internal standard in the absence of the compound (I) or a pharmaceutically acceptable salt thereof, and b is the peak height or peak area corrected with the peak due to the internal standard in the presence of the compound (I) or a pharmaceutically acceptable salt thereof.

[2] = test system: lipid peroxide production in rat brain homogenates; assay: Inhibitory action on lipid peroxide production in rat brain homogenates; assay type: biochemical; settings: 5 v/v % rat brain homogenate, pH 7.4, 1 hour at 37° C.; read-out: Inhibition (IC50) of lipid peroxide production
Procedure: The male SD rat (12 weeks) brain tissue was extracted under anesthesia after depletion. The extracted brain tissue was used as 5 v/v % homogenate in phosphate buffer (pH 7.4). After incubation of the homogenate for 1 hour at 37° C., the peroxide produced was determined by the thiobarbituric acid method according to the method described in Analytical Biochemistry, 95, 551 (1979).
Before incubation, test compounds were added in 5 v/v % homogenate so that their final concentration becomes 10^-5 M. […]

[3] = test system: generation of HHT in rat platelets; assay: Inhibitory effect on the generation of 12-hydroxyheptadeca-5,8,10-trienoic acid (HHT) in rat platelets; assay type: cell-based; settings: rat platelet rich plasma; for inhibition at 100 µM: 10^-4 M; for inhibition at 10 µM: 10^-5 M
Procedure: Blood was collected in 3.2 v/v % sodium citrate (0.8 ml for 7.2 ml of blood) from the abdominal aorta of male Wister rats (Jcl, 12 to 15 weeks) anesthesized with pentobarbital. Platelet rich plasma (PRP) was obtained by centrifuging the blood at 800 rpm for 10 min at room temperature. Platelet poor plasma (PPP) was prepared by centrifuging the remaining blood at 3,000 rpm for 10 min. The platelet concentration of PRP was adjusted to 1,000,000/μl with PPP. […]
The reaction was stopped by adding 100 ml of ethanol and the mixture was allowed to stand for 10 min. at room temperature. The reaction mixture was centrifuged at 2,000 rpm for 10 min. and the supernatant obtained was evaporated. To the concentrate, 0.2 ml of 60 v/v % aqueous ethanol was added.
100 μl of this solution was subjected to high performance liquid chromatography for quantitative analysis of HHT. The amount of HHT was determined by measurement of absorbance at 237 nm with a UV absorption monitor.
The inhibitory effect (IE) on the generation of HHT is expressed by (1-b/a)×100, wherein a is the peak height or the peak area corrected with the peak due to the internal standard in the absence of the compound (I) or a pharmaceutically acceptable salt thereof, and b is the peak height or the peak area corrected with the peak due to the internal standard in the compound (I) or a pharmaceutically acceptable salt thereof.

[4] = test system: neurological deficits in rats with cerebral ischemia; assay: Neurological deficits in rats with experimental cerebral ischemia; assay type: in vivo, rat; settings: p.o.
Procedure: Male Crj:Wistar rats, that were 7 weeks old at the time of electocauterization of the bilateral vertebral arteries, were used. Electrocauterization of the bilateral vertebral arteries was performed under pentobarbital Na (40 mg/kg, i.p.) anesthesia. Global cerebral ischemia was produced by 20 min. occlusion of both common carotid arteries 24 hr after the permanent electrocauterization of the bilateral vertebral arteries (Pulsinelli W. A. and Brierly J. B., Stroke 10, 267-272 (1979).
The compound of Example 20 was given orally as a single dose immediately after the reperfusion of both carotid arteries.
1; decrease in spontaneous motor activity, piloerection, ptosis, miosis, hyperirritability, slight ataxia
2; moderate to servere ataxia
3; loss of righting reflex, slight convulsions
4; severe convulsions, coma
The median neurological deficit scores of the drug-treated groups were compared with that of saline-treated control. Statistical analysis was done using the Mann-Whitney U-test.

[5] = test system: urinary incontinence in rats with spinal cord compression; assay: Incidence of rats showing urinary incontinence (spinal cord compression); assay type: in vivo, rat; set-up: Incidence of rats showing urinary incontinence: unit not given here; settings: 40 mg/kg, p.o.
From the text: (§1) Male Jcl:Wistar rats, weighing about 350 g at the time of spinal cord compression were used. A spinal cord injury was produced in rats by compressing the spinal cord with a stainless screw of 2.8 mm length and 2 mm diameter at thoracic 11 (T11) level under pentobarbital anesthesia. On the day of the operation, the screw was placed so that the end was just above the subarachnoid membrane of the spinal cord.
(§2) On the following day, the screw was completely tightened to compress the spinal cord without penetrating the subarachnoid membrane. After compression of the spinal cord for 60 min., the screw was removed. Test compounds were given orally 5 min. after the removal of screw.
(§3) The median neurological score of the drug-treated groups were compared with that saline-teated control group. Statistical analysis was done using the Mann-Whitney U-test. The incidence of rats showing urinary incontinence was also compared by the .chi.^2 -test.

[6] = test system: neurological deficits caused by spinal cord compression in rats; assay: Functional neurologic impairment induced by spinal cord compression in rats; assay type: in vivo, rat; settings: 40 mg/kg, p.o.
From the text: as §1, §2
0; flaccid paralysis, no movement of hind limbs, no response to pinching of tail with foreceps (i.e. movement of fore limbs, biting foreceps, vocalization)
1; no movement of hind limbs, but responds to pinching of tail with foreceps
2; uncoordinated movement (loss of coordination between limbs), but can not support own weight
3; movement with an impairment (general coordination between limbs), but can not support own weight
4; walking with a slight ataxia of the hind limbs, but can support own weight
as §3

[7] = day 3, Ex. 7 *p < 0.05, Ex. 20 **p < 0.01

Compound: Cc1c(C)c2c(c(C)c1O)C(c1ccc(Cl)cc1)C(C)(C)O2 (stereo not drawn) [Example 13]
- Score (mean behavioral score) ([1]; 30 min. prior to FeCl2, 0 normal to 5 death): 0.7
- Percent inhibition (of mean score) ([1]; vs vehicle p.o.): 83%

Compound: Cc1c(C)c2c(c(C)c1O)C(c1ccccc1)C(C)(C)O2 (stereo not drawn) [Example 6, 5-hydroxy-2,2,4,6,7-pentamethyl-3-phenyl-2,3-dihydrobenzofuran]
- inhibition at 1 µM (5-lipoxygenase): 92%
- inhibition at 0.1 µM (5-lipoxygenase): 18%
- inhibition at 0.01 µM (5-lipoxygenase): 0%
- pIC50 [2]: 6.89
- inhibition at 100 µM [3]: 49%
- inhibition at 10 µM [3]: 7%

Compound: Cc1c(C)c2c(c(C)c1O)C(c1cccnc1)C(C)(C)O2 (stereo not drawn) [Example 1, 5-hydroxy-2,2,4,6,7-pentamethyl-3-(3-pyridyl)-2,3-dihydrobenzofuran]
- inhibition at 1 µM (5-lipoxygenase): 89%
- inhibition at 0.1 µM (5-lipoxygenase): 57%
- inhibition at 0.01 µM (5-lipoxygenase): 16%
- pIC50 [2]: 6.66
- inhibition at 100 µM [3]: 76%
- inhibition at 10 µM [3]: 47%

Compound: Cc1c2c(c3ccccc3c1O)OC(C)(C)C2c1cccnc1 (stereo not drawn) [Example 5]
- inhibition at 1 µM (5-lipoxygenase): 99%
- inhibition at 0.1 µM (5-lipoxygenase): 22%
- inhibition at 0.01 µM (5-lipoxygenase): 0%
- pIC50 [2]: 6.92
- inhibition at 100 µM [3]: 84%
- inhibition at 10 µM [3]: 54%

Compound: Cc1c(C)c2c(c(C)c1O)C(c1ccccn1)C(C)(C)O2 (stereo not drawn) [Example 4]
- inhibition at 1 µM (5-lipoxygenase): 98%
- inhibition at 0.1 µM (5-lipoxygenase): 18%
- inhibition at 0.01 µM (5-lipoxygenase): 0%
- pIC50 [2]: 6.60
- inhibition at 100 µM [3]: 29%
- inhibition at 10 µM [3]: 9%

Compound: Cc1c(C)c2c(c(C)c1O)C(c1ccc(C(C)C)cc1)C(C)(C)O2 (stereo not drawn) [Example 20, 5-hydroxy-2,2,4,6,7-pentamethyl-3-(4-isopropylphenyl)-2,3-dihydrobenzofuran]
- neurological deficit score (median value) ([4]; 10 mg/kg, day 1, 0 normal to 5 death): 2
- neurological deficit score (median value) ([4]; 10 mg/kg, day 2): 2
- neurological deficit score (median value) ([4]; 10 mg/kg, day 3, *p < 0.05): 1.5
- neurological deficit score (median value) ([4]; 10 mg/kg, day 5, **p < 0.01): 1
- neurological deficit score (median value) ([4]; 10 mg/kg, day 7, *p < 0.05): 1
- neurological deficit score (median value) ([4]; 10 mg/kg, day 10, **p < 0.01): 0
- neurological deficit score (median value) ([4]; 10 mg/kg, day 14): 0
- neurological deficit score (median value) ([4]; 40 mg/kg, day 1, 0 normal to 5 death): 2
- neurological deficit score (median value) ([4]; 40 mg/kg, day 2): 2
- neurological deficit score (median value) ([4]; 40 mg/kg, day 3, **p < 0.01): 1
- neurological deficit score (median value) ([4]; 40 mg/kg, day 5, **p < 0.01): 1
- neurological deficit score (median value) ([4]; 40 mg/kg, day 7, *p < 0.05): 1
- neurological deficit score (median value) ([4]; 40 mg/kg, day 10, *p < 0.05): 0
- neurological deficits caused by transient cerebral ischemia (in words) ([4]; 10 and 40 mg/kg): significantly ameliorated the neurological deficits
- Incidence of rats showing urinary incontinence ([5]; day 1, Ex. 20 **p < 0.01): 0
- Incidence of rats showing urinary incontinence ([5]; day 2, Ex. 20 **p < 0.01): 0
- Incidence of rats showing urinary incontinence [5, 7]: 0
- Incidence of rats showing urinary incontinence ([5]; day 5, Ex. 20 **p < 0.01): 0
- Incidence of rats showing urinary incontinence ([5]; day 7, Ex. 7 *p < 0.05): 7.1
- Incidence of rats showing urinary incontinence ([5]; day 10): 7.1
- Incidence of rats showing urinary incontinence ([5]; day 14): 7.1
- incidence of urinary incontinence (in words) ([5]; Table 4(IV)): reduced the incidence of urinary incontinence
- inhibition at 1 µM (5-lipoxygenase): 100%
- inhibition at 0.1 µM (5-lipoxygenase): 42%
- inhibition at 0.01 µM (5-lipoxygenase): 36%
- neurological score (median value) ([6]; day 1, 0 flaccid paralysis to 5 normal gait, Ex. 20 **p < 0.01): 2
- neurological score (median value) [6, 7]: 3
- neurological score (median value) ([6]; day 7, Ex. 20 **p < 0.01): 4
- neurological score (median value) ([6]; day 14, Ex. 20 *p < 0.05): 4
- neurological impairment caused by spinal cord compression (in words) ([6]; Table 4(III)): ameliorated the neurological impairment
- pIC50 [2]: 7.60

Compound: Cc1c(C)c2c(c(C)c1O)C(c1cccnc1)C1(CCCC1)O2 (stereo not drawn) [Example 2]
- inhibition at 1 µM (5-lipoxygenase): 91%
- inhibition at 0.1 µM (5-lipoxygenase): 70%
- inhibition at 0.01 µM (5-lipoxygenase): 18%
- pIC50 [2]: 6.12
- inhibition at 100 µM [3]: 79%
- inhibition at 10 µM [3]: 52%

Compound: Cc1c(C)c2c(c(C)c1O)C(c1cccnc1)C1(CCCCC1)O2 (stereo not drawn) [Example 3, 5-hydroxy-4,6,7-trimethyl-3-(3-pyridyl)-3H-benzofuran-2-spirocyclohexane]
- inhibition at 1 µM (5-lipoxygenase): 91%
- inhibition at 0.1 µM (5-lipoxygenase): 64%
- inhibition at 0.01 µM (5-lipoxygenase): 20%
- pIC50 [2]: 6.82
- inhibition at 100 µM [3]: 40%
- inhibition at 10 µM [3]: 7%
